Reference: ChEMBL document CHEMBL1132014, “Novel 1,2,3,4-tetrahydroisoquinolines with high affinity and selectivity for the dopamine D3 receptor” (Bioorg Med Chem Lett, 1999)

Legend:
D(2) dopamine receptor [1] = target: T1, D(2) dopamine receptor (Homo sapiens, UniProt P14416); assay: Displacement [125I]iodosulpiride from human Dopamine receptor D2 expressed in CHO cells; type: cell-based
D(3) dopamine receptor [2] = target: T2, D(3) dopamine receptor (Homo sapiens, UniProt P35462); assay: Displacement of [125I]iodosulpiride from human Dopamine receptor D3 expressed in CHO cells; type: cell-based
T2 sequence (P35462 whole entry): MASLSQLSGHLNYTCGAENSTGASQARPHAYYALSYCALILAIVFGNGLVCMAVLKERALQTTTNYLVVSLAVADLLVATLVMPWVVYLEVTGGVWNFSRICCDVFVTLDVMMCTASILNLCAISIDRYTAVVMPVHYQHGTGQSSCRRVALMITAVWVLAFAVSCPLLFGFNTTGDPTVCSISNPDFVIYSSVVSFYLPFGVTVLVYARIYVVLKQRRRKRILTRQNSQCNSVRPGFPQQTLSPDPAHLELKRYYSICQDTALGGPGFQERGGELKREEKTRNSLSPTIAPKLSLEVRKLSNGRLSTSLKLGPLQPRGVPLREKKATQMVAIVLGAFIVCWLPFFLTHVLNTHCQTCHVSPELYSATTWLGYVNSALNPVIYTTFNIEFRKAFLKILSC

[3] = Pharmacokinetic property (CLb)of the compound was determined in rat; type: ADME, organism-based; details: blood, read-out: CLb
[4] = Pharmacokinetic property (blood clearance) in rat; type: ADME, organism-based
D(3) dopamine receptor [5] = target: T2, D(3) dopamine receptor; assay: In vitro functional antagonist effect by its affinity to bind to Dopamine receptor D3
[6] = Half life in rat; type: ADME, organism-based; details: in vivo
D(2) dopamine receptor [7] = target: T1, D(2) dopamine receptor; assay: In vitro functional antagonist effect by its affinity to bind to Dopamine receptor D2

T1 sequence (P14416 whole entry): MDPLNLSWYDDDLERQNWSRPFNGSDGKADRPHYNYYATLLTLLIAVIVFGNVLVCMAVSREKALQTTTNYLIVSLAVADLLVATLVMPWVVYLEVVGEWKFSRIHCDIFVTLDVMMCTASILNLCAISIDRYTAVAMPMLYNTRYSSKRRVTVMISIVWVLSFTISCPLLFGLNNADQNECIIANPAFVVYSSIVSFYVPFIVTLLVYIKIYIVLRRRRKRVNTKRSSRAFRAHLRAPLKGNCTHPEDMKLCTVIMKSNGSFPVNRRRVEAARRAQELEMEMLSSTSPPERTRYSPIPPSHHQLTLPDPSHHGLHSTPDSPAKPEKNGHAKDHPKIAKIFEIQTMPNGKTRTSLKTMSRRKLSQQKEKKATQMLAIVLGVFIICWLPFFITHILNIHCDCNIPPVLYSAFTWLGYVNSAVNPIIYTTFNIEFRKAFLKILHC

| SMILES | Ki (D(2) dopamine receptor [1]) [nM] | Ki (D(3) dopamine receptor [2]) [nM] | further results |
| --- | --- | --- | --- |
| CCCN(CCCCNC(=O)c1ccc(-c2ccccc2)cc1)C1CCc2c(Cl)cccc2C1 (stereo unspecified) | – | – | clearance [3]: 80 mL/min/kg |
| CN(C)c1ccc(/C=C/C(=O)NCCCCN2CCc3ccc(OS(=O)(=O)C(F)(F)F)cc3C2)cc1 | 501 | 3.98 | – |
| Cn1c(=O)ccc2cc(/C=C/C(=O)NCCCCN3CCc4ccc(OS(=O)(=O)C(F)(F)F)cc4C3)ccc21 | 316 | 10 | – |
| COc1cccc(/C=C/C(=O)NCCCCN2CCc3ccc(OS(=O)(=O)C(F)(F)F)cc3C2)c1 | 316 | 3.16 | – |
| O=C(/C=C/c1cnc2ccccc2c1)NCCCCN1CCc2ccc(OS(=O)(=O)C(F)(F)F)cc2C1 | 316 | 3.98 | – |
| COc1ccc(/C=C/C(=O)NCCCCN2CCc3ccc(OS(=O)(=O)C(F)(F)F)cc3C2)cc1 | 316 | 3.98 | – |
| O=C(/C=C/c1ccc2nc(O)ccc2c1)NCCCCN1CCc2ccc(OS(=O)(=O)C(F)(F)F)cc2C1 | 158 | 2.51 | – |
| O=C(/C=C\c1ccccc1)NCCCCN1CCc2ccc(OS(=O)(=O)C(F)(F)F)cc2C1 | 316 | 39.8 | – |
| O=C(/C=C/c1ccc2ccccc2n1)NCCCCN1CCc2ccc(OS(=O)(=O)C(F)(F)F)cc2C1 | 398 | 3.98 | – |
| O=C(/C=C/c1ccccc1)NCCCCN1CCc2ccc(OS(=O)(=O)C(F)(F)F)cc2C1 | 316 | 5.01 | – |
| O=C(NCCCCN1CCc2ccccc2C1)c1ccc(-c2ccccc2)cc1 | 501 | 25.1 | clearance [3]: 20 mL/min/kg |
| O=C(/C=C/c1ccc2[nH]ccc2c1)NCCCCN1CCc2ccc(OS(=O)(=O)C(F)(F)F)cc2C1 | 200 | 2 | – |
| O=C(/C=C/c1ccc2ncccc2c1)NCCCCN1CCc2ccc(OS(=O)(=O)C(F)(F)F)cc2C1 | 251 | 3.16 | – |
| O=C(/C=C/c1c[nH]c2ccccc12)NCCCCN1CCc2ccc(OS(=O)(=O)C(F)(F)F)cc2C1 | 631 | 3.98 | clearance [4]: 27 mL/min/kg; pKb (D(3) dopamine receptor [5]): 8.9; half-life [6]: 2.5 h; pKb (D(2) dopamine receptor [7]): 6.6 |

Second part, led by results:

| Ki (D(2) dopamine receptor [1]) [nM] | Ki (D(3) dopamine receptor [2]) [nM] | SMILES | further results |
| --- | --- | --- | --- |
| 501 | 126 | O=C(NCCCCN1CCc2ccc(OS(=O)(=O)C(F)(F)F)cc2C1)c1cccc(-c2ccccc2)c1 | – |
| 200 | 2.51 | CC(=O)c1ccc(-c2ccc(C(=O)NCCCCN3CCc4ccc(OS(=O)(=O)C(F)(F)F)cc4C3)cc2)cc1 | – |
| 251 | 3.98 | CC(=O)c1ccc(/C=C/C(=O)NCCCCN2CCc3ccc(OS(=O)(=O)C(F)(F)F)cc3C2)cc1 | – |
| 100 | 2 | Cc1nnc(-c2ccc(-c3ccc(C(=O)NCCCCN4CCc5ccc(OS(=O)(=O)C(F)(F)F)cc5C4)cc3)cc2)o1 | – |
| 1000 | 50.1 | Cc1cc(C(=O)NCCCCN2CCc3ccc(OS(=O)(=O)C(F)(F)F)cc3C2)ccc1-c1ccccc1 | – |
| 398 | 3.98 | CC(=O)c1cccc(/C=C/C(=O)NCCCCN2CCc3ccc(OS(=O)(=O)C(F)(F)F)cc3C2)c1 | – |
| 126 | 2.51 | O=C(NCCCCN1CCc2ccc(OS(=O)(=O)C(F)(F)F)cc2C1)c1ccc(-c2ccc(N3CCCC3=O)cc2)cc1 | – |
| 100 | 2.51 | CNC(=O)c1ccc(-c2ccc(C(=O)NCCCCN3CCc4ccc(OS(=O)(=O)C(F)(F)F)cc4C3)cc2)cc1 | – |
| 1000 | 5.01 | O=C(/C=C/c1ccc2ccccc2c1)NCCCCN1CCc2ccc(OS(=O)(=O)C(F)(F)F)cc2C1 | – |
| 126 | 2 | CNC(=O)c1cccc(-c2ccc(C(=O)NCCCCN3CCc4ccc(OS(=O)(=O)C(F)(F)F)cc4C3)cc2)c1 | – |
| 501 | 7.94 | O=C(NCCCCN1CCc2ccc(OS(=O)(=O)C(F)(F)F)cc2C1)c1ccc(-c2ccccc2)cc1 | – |
| 1580 | 50.1 | Cc1ccccc1-c1ccc(C(=O)NCCCCN2CCc3ccc(OS(=O)(=O)C(F)(F)F)cc3C2)cc1 | – |
